One assay concerns PR-B. The assay is described as follows: PR ubiquitin assay. It counts as cell-based, human. The following applies: 2 hrs in the presence of a proteasomal inhibitor. As for the experimental part:
Cells were staved in PRF MEM for 24 hours, and then 2×10^6 cells were seeded into 100 mm tissue culture plates, and incubated for another 24 hours. Cells were transiently transfected with Fugene 6 reagent (Roche, Indianapolis, Ind.) following the manufacturer's protocol. Each plate was transfected with 1 μg pcDNA 3.1-PR-B (subcloned by BamHI digestion from pSG5-human PR-B clone (Richer et al., 1998) obtained from Dr. Kathryn Horwitz, University of Colorado Health Sciences Center, 1 μg MKP3-V5, and 3 μg pcDNA-HAUbiquitin (kindly provided by Dr. Xinhua Feng, Baylor College of Medicine). Twenty-four hours later, cells were switched to serum free, PRF MEM, incubated for another 24 hours. In some experiments were pretreated with the 50 μM MG-132 (Calbiochem, LaJolla, Calif.) for 2 hours, and then treated with vehicle (ethanol), estradiol (E2, 100 nM), or 4-OH-Tam (100 nM) for an additional 2 hours. Cells were then harvested in 1 ml cell lysis buffer supplemented with 50 μM MG-132. Cell lysates from each treatment were precleared with the addition of 50 μl 50% protein A slurry (Amersham), and immunoprecipitated with the addition of anti-PR antibodies C-19 and H190 (2 μg each), and 20 μl 50% protein A slurry. […]

The next assay has as its system ER-positive tumors. The following applies: cited from earlier work.
For the next assay, the system named is cyclin D1 (CCND1). The assay is described as follows: Immunoblot of CCND1 in MCF-7 transfectants. It counts as cell-based, human. The following applies: MKP3 overexpressing cells; 2 hours. Here is the method: Cells grown in 100 mm dishes were starved in phenol red-free (PRF), serum-free MEM (Specialty Media, Phillipsburg, N.J.) for 48 hours, and were then treated for 2 hours with vehicle (ethanol), estrogen (100 nM, 20), or OHT (100 nM). After treatment, cells were rinsed twice with ice-cold phosphate-buffered saline (PBS) and were then lysed immediately with 200 μl of cell lysis buffer (20 mM Tris HCl, pH 7.4, 150 mM NaCl, 1 mM B-glycerophosphate, 1 mM sodium orthovanadate, and 10% glycerol plus 1:100 proteinase inhibitor cocktail III) (Calbiochem, LaJolla, Calif.) per 100 mm tissue culture. The cell lysates were cleared by centrifugation at 16,100×g for 10 minutes at 4° C. Protein concentration was determined with the BCA Protein Assay kit (Pierce, Rockfold, Ill.) according to the manufacturer's directions. Equal amount of cell extracts were resolved under denaturing conditions by electrophoresis in 8-10% polyacrylamide gels containing sodium dodecyl sulfate (SDS-PAGE), and transferred to nitrocellulose membranes by electroblotting (Schleicher & Schuell, Keene, NH). […]
As expected with two hours of estrogen treatment, no induction of the two PR isoforms were detected in either the control vector (Con 1 and 2), or in the MKP3-transfected cells (FIG. 11A). […]
(In general: Immunoblotting shows a protein as a band on a membrane.)

Assay [1] deals with ERα. Put plainly: Transient transactivation assay with ERE-luciferase reporter. It counts as cell-based. The following applies: U20S cells with exogenous ER or MCF-7 cells with endogenous ER; EBP50 expression. The text has this: Transient transactivation assays with an ERE-luciferase reporter were utilized in U20S cells expressing exogenous ER (Panel A), or MCF-7 cells expressing endogenous ER (Panel B). ER activity was enhanced with EBP50 expression in the presence of estrogen.
Background: In a reporter assay the amount or activity of a reporter protein is the signal.

The subject of assay [2] is EBP50. Put plainly: Immunoblot of EBP50 in MCF-7 cells. It is filed as cell-based, human. The following applies: 24 hours. As for the experimental part:
(§1) In Panel B, immunoprecipitation of E or T treated MCF-7 cells was performed followed by immunoblot analysis.

Assay [3] relates to EBP50. Put plainly: Immunoblot of EBP50 in T47D vector and MTA2 clones. It counts as cell-based, human.
Assay [4] concerns ERα. Put plainly: Immunoblot of ERα in T47D vector and MTA2 clones. It counts as cell-based, human.
A further assay concerns ezrin. Put plainly: Immunoblot of ezrin in MCF-7 cells. It counts as cell-based, human. The following applies: 24 hours. Here is the method: as §1
[5] abbreviates: adjuvant therapy, patients with ER-positive tumors.

In the case of `CC/C(=C(\c1ccccc1)c1ccc(OCCN(C)C)cc1)c1ccccc1` [Tam, tamoxifen], the “level of polyubiquitin-conjugated PR-B” value with PR-B was “increased”. Also, in the assay on ER-positive tumors (setting [5]), the 10-year recurrence risk entry was “halves” and the “reduction of the risk of death from metastatic disease” value was 26%. Moreover, the “share of patients with ER-positive disease who respond” value in the assay on ER-positive tumors (human, in vivo) is on record as 60%. Moreover, the CCND1 levels entry in the assay on cyclin D1 (CCND1) was “High levels”. Further, the “effect on ER activity (ERE-luciferase)” value in the assay with ERα [1] is “antagonist and reversed estrogen's effects”.
Consider `C[C@]12CC[C@@H]3c4ccc(O)cc4CC[C@H]3[C@@H]1CC[C@@H]2O` [E2, 17β-Estradiol], for which the results for the EBP50 levels entry in the assay on EBP50 [2] and in the assay with EBP50 [3] were “similarly induced” and “increased”, respectively. Further, the ERα protein levels entry with ERα [4] was “decreased”. For the same compound, the ezrin levels entry with ezrin was “similarly induced”.
